Measurements reported in patent publication US10179771B2 (GALAPAGOS NV, priority 2014, dated 2019).

What follows are compounds tested against T1, Recombinant human TYK2 catalytic domain (Homo sapiens, UniProt P29597) (assay: TYK2 inhibition assay). Conditions: Comparative Compounds (Table XII).
T1 construct: Recombinant human TYK2 catalytic domain (amino acids 871-1187; catalog number 08-147); purchased Carna biosciences 08-147
T1 sequence (P29597 871-1187): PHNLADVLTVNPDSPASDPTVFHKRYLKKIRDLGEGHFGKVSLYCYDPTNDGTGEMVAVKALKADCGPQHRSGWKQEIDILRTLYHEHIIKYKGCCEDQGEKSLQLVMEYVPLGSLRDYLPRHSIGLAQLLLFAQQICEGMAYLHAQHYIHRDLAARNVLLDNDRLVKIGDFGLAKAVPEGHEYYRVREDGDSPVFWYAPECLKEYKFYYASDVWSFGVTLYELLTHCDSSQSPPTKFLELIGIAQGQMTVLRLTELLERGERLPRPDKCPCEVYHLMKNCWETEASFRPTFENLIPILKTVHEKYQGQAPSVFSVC
Assay type: biochemical
Method: Recombinant human TYK2 catalytic domain (amino acids 871-1187; catalog number 08-147) was purchased from Carna biosciences. 5 ng of TYK2 was incubated with 12.5 μg polyGT substrate (Sigma catalog number P0275) in kinase reaction buffer (25 mM Hepes pH 7.2, 50 mM NaCl, 0.5 mM EDTA, 1 mM DTT, 5 mM MnCl2, 10 mM MgCl2, 0.1% Brij-35, 0.1 μM non-radioactive ATP, 0.125 μCi ^33P-gamma-ATP (GE Healthcare, catalog number AH9968) final concentrations) with or without 5 μL containing test compound or vehicle (DMSO, 1% final concentration), in a total volume of 25 μL, in a polypropylene 96-well plate (Greiner, V-bottom). After 90 min at 30° C., reactions were stopped by adding 25 μL/well of 150 mM phosphoric acid. All of the terminated kinase reaction was transferred to prewashed (75 mM phosphoric acid) 96 well filter plates (Perkin Elmer catalog number 6005177) using a cell harvester (Perkin Elmer). Plates were washed 6 times with 300 μL per well of a 75 mM phosphoric acid solution and the bottom of the plates was sealed. 40 μL/well of Microscint-20 was added, the top of the plates was sealed and readout was performed using the Topcount (Perkin Elmer). Kinase activity was calculated by subtracting counts per min (cpm) obtained in the presence of a positive control inhibitor (10 μM staurosporine) from cpm obtained in the presence of vehicle. The ability of a test compound to inhibit this activity was determined as: Percentage inhibition=((cpm determined for sample with test compound present−cpm determined for sample with positive control inhibitor) divided by (cpm determined in the presence of vehicle−cpm determined for sample with positive control inhibitor))*100.
Dose dilution series were prepared for the compounds enabling the testing of dose-response effects in the TYK2 assay and the calculation of the IC50 for each compound. Each compound was routinely tested at concentration of 20 μM followed by a 1/3 serial dilution, 8 points (20 μM-6.67 μM-2.22 μM-740 nM-247 nM-82 nM-27 nM-9 nM) in a final concentration of 1% DMSO. When potency of compound series increased, more dilutions were prepared and/or the top concentration was lowered (e.g. 5 μM, 1 μM).

`CN(c1cc2c(cn1)ncn2C)c1ccc(C#N)cc1F` [D, reference compound] was tested, and the IC50 was greater than 500 nM.

Same assay, conditions: Illustrative Compounds of the invention (Table XI)

`CN(c1cc(NC(=O)[C@H]2C[C@H]2F)c2ncn(C)c2c1)c1ccc(C#N)nc1F` [Cpd 14, (1R,2R)-N-[6-[(6-cyano-2-fluoro-3-pyridyl)-methyl-amino]-1-methyl-benzimidazol-4-yl]-2-fluoro-cyclopropanecarboxamide] and `Cc1cc(C#N)nc(F)c1N(C)c1cc(NC(=O)[C@H]2C[C@H]2F)c2ncn(C)c2c1` [Cpd 21, (1R,2R)-N-[6-[(6-cyano-2-fluoro-4-methyl-3-pyridyl)-methyl-amino]-1-methyl-benzimidazol-4-yl]-2-fluoro-cyclopropanecarboxamide] fall in the same range of IC50: 0.1 to 50 nM for the first, 0.1 to 50 nM for the second.

First: CN(c1cc(NC(=O)[C@H]2C[C@H]2F)c2ncn(C)c2c1)c1ccc(C#N)cc1F [Cpd 15, (1R,2R)-N-[6-(4-cyano-2-fluoro-N-methyl-anilino)-1-methyl-benzimidazol-4-yl]-2-fluoro-cyclopropanecarboxamide]
Second: CN(c1cc(NC(=O)[C@H]2C[C@H]2F)c2ncn(C)c2c1)c1ccc(S(C)(=O)=O)cc1F [Cpd 17, (1R,2R)-2-fluoro-N-[6-(2-fluoro-N-methyl-4-methylsulfonyl-anilino)-1-methyl-benzimidazol-4-yl]cyclopropanecarboxamide]
The IC50 of the first is lower: 0.1 to 50 nM for the first, 100 to 500 nM for the second.

`Cc1cc(S(C)(=O)=O)cc(F)c1N(C)c1cc(NC(=O)[C@H]2C[C@H]2F)c2ncn(C)c2c1` [Cpd 16, (1R,2R)-2-fluoro-N-[6-(2-fluoro-N,6-dimethyl-4-methylsulfonyl-anilino)-1-methyl-benzimidazol-4-yl]cyclopropanecarboxamide] and `Cc1cc(S(C)(=O)=O)cc(F)c1N(C)c1cc(NC(=O)C2CC2)c2ncn(C)c2c1` [Cpd 19, N-[6-(2-fluoro-N,6-dimethyl-4-methylsulfonyl-anilino)-1-methyl-benzimidazol-4-yl]cyclopropanecarboxamide] fall in the same range of IC50: 0.1 to 50 nM for the first, 0.1 to 50 nM for the second.

`CCc1cc(S(C)(=O)=O)ncc1N(C)c1cc(NC(=O)C2CC2)c2ncn(C)c2c1` [Cpd 18, N-[6-[(4-ethyl-6-methylsulfonyl-3-pyridyl)-methyl-amino]-1-methyl-benzimidazol-4-yl]cyclopropanecarboxamide] and `CCc1cc(C(N)=O)ncc1N(C)c1cc(NC(=O)C2CC2)c2ncn(C)c2c1` [Cpd 24, 5-((4-(cyclopropanecarboxamido)-1-methyl-1H-benzo[d]imidazol-6-yl)(methyl)amino)-4-ethylpicolinamide] fall in the same range of IC50: 0.1 to 50 nM for the first, 0.1 to 50 nM for the second.

`Cc1cc(C#N)ncc1Oc1cc(NC(=O)[C@H]2C[C@H]2F)c2ncn(C)c2c1` [Cpd 20, (1R,2R)-N-[6-[(6-cyano-4-methyl-3-pyridyl)oxy]-1-methyl-benzimidazol-4-yl]-2-fluoro-cyclopropanecarboxamide] and `Cc1cc(C#N)ncc1Oc1cc(NC(=O)C2CC2)c2ncn(C)c2c1` [Cpd 23, N-[6-[(6-cyano-4-methyl-3-pyridyl)oxy]-1-methyl-benzimidazol-4-yl]cyclopropanecarboxamide] fall in the same range of IC50: 0.1 to 50 nM for the first, 0.1 to 50 nM for the second.

`Cc1cnc(C#N)c(F)c1N(C)c1cc(NC(=O)[C@H]2C[C@H]2F)c2ncn(C)c2c1` [Cpd 22, (1R,2R)-N-[6-[(2-cyano-3-fluoro-5-methyl-4-pyridyl)-methyl-amino]-1-methyl-benzimidazol-4-yl]-2-fluoro-cyclopropanecarboxamide] and `CCc1cc(C(N)=O)ncc1N(C)c1cc(NC(=O)[C@H]2C[C@H]2F)c2ncn(C)c2c1` [Cpd 25, 4-ethyl-5-((4-((1R,2R)-2-fluorocyclopropanecarboxamido)-1-methyl-1H-benzo[d]imidazol-6-yl)(methyl)amino)picolinamide] fall in the same range of IC50: 0.1 to 50 nM for the first, 0.1 to 50 nM for the second.

`Cc1cc(S(C)(=O)=O)ccc1N(C)c1cc(NC(=O)[C@H]2C[C@H]2F)c2ncn(C)c2c1` [Cpd 26, (1R,2R)-N-[6-(N,2-dimethyl-4-methylsulfonyl-anilino)-1-methyl-benzimidazol-4-yl]-2-fluoro-cyclopropanecarboxamide] and `CCS(=O)(=O)c1ccc(N(C)c2cc(NC(=O)[C@H]3C[C@H]3F)c3ncn(C)c3c2)c(C)c1` [Cpd 27, (1R,2R)-N-[6-(4-ethylsulfonyl-N,2-dimethyl-anilino)-1-methyl-benzimidazol-4-yl]-2-fluoro-cyclopropanecarboxamide] fall in the same range of IC50: 0.1 to 50 nM for the first, 0.1 to 50 nM for the second.

First: Cc1cc(C#N)ncc1Oc1cc(N)c2ncn(C)c2c1 [Cpd 28, 5-(7-amino-3-methyl-benzimidazol-5-yl)oxy-4-methyl-pyridine-2-carbonitrile]
Second: CNc1cc(Oc2cnc(C#N)cc2C)cc2c1ncn2C [Cpd 34, 4-methyl-5-[3-methyl-7-(methylamino)benzimidazol-5-yl]oxy-pyridine-2-carbonitrile]
The IC50 of the first is lower: 100 to 500 nM for the first, greater than 500 nM for the second. The first is the more potent here.

Compared with `CCc1cc(S(C)(=O)=O)ncc1Oc1cc(NC(=O)C2CC2)c2ncn(C)c2c1` [Cpd 29, N-[6-[(4-ethyl-6-methylsulfonyl-3-pyridyl)oxy]-1-methyl-benzimidazol-4-yl]cyclopropanecarboxamide], `Cc1cc(C(N)=O)ncc1Oc1cc(NC(=O)[C@H]2C[C@H]2F)c2ncn(C)c2c1` [Cpd 32, 5-[7-[[(1R,2R)-2-fluorocyclopropanecarbonyl]amino]-3-methyl-benzimidazol-5-yl]oxy-4-methyl-pyridine-2-carboxamide] is lower in IC50: 100 to 500 nM for the first, 50 to 100 nM for the second.

First: Cc1cc(C#N)ncc1Oc1cc(N(C)C)c2ncn(C)c2c1 [Cpd 35, 5-[7-(dimethylamino)-3-methyl-benzimidazol-5-yl]oxy-4-methyl-pyridine-2-carbonitrile]
Second: Cc1cc(C#N)ncc1Oc1cc(NC(=O)NC(C)C)c2ncn(C)c2c1 [Cpd 38, 1-[6-[(6-cyano-4-methyl-3-pyridyl)oxy]-1-methyl-benzimidazol-4-yl]-3-isopropyl-urea]
The IC50 of the first is higher: greater than 500 nM for the first, 100 to 500 nM for the second.

`Cc1cc(C#N)ncc1Oc1cc(NC(=O)N2CC(O)C2)c2ncn(C)c2c1` [Cpd 36, N-[6-[(6-cyano-4-methyl-3-pyridyl)oxy]-1-methyl-benzimidazol-4-yl]-3-hydroxy-azetidine-1-carboxamide] and `Cc1cc(C#N)ncc1Oc1cc(NC(=O)N2CCOCC2)c2ncn(C)c2c1` [Cpd 37, N-[6-[(6-cyano-4-methyl-3-pyridyl)oxy]-1-methyl-benzimidazol-4-yl]morpholine-4-carboxamide] cannot be ordered by IC50: greater than 500 nM for the first, greater than 500 nM for the second.
